Results taken from US11667673B2, “Therapeutically active compounds and their methods of use” (Servier Pharmaceuticals LLC, priority 2013, dated 2023).

Tested on: U87MG cells
Test: Cellular assay for IDH1m inhibitors: inhibition of 2-HG production in U87MG cells (LC-MS)
Assay type: cell-based
Procedure: Cells (HT1080 or U87MG) are grown in T125 flasks in DMEM containing 10% FBS, 1× penicillin/streptomycin and 500 ug/mL G418 (present in U87MG cells only). They are harvested by trypsin and seeded into 96 well white bottom plates at a density of 5000 cell/well in 100 ul/well in DMEM with 10% FBS. […] Cells are incubated overnight at 37° C. in 5% CO2. The next day test compounds are made up at 2× the final concentration and 100 ul are added to each cell well. The final concentration of DMSO is 0.2% and the DMSO control wells are plated in row G. The plates are then placed in the incubator for 48 hours. […] The cell plate is placed back in the incubator for another 24 hours. At 72 hours post compound addition, 10 mL/plate of Promega Cell Titer Glo reagent is thawed and mixed. The cell plate is removed from the incubator and allowed to equilibrate to room temperature. Then 100 ul of Promega Cell Titer Glo reagent is added to each well of media. The cell plate is then placed on an orbital shaker for 10 minutes and then allowed to sit at room temperature for 20 minutes. The plate is then read for luminescence with an integration time of 500 ms.

Row | IC50 (Homo sapiens, U-87 MG, 48 h) [nM] | Compound | IC50 (inhibition of 2-HG production, U87MG cells, 48 hours) [nM]
1 | < 100 | O=C(NC1CCC(F)(F)CC1)[C@H](c1ccccc1Cl)N(C(=O)[C@@H]1CCC(=O)N1c1ncccn1)c1cccc(F)c1 [compound 4, (S)—N—((S)-1-(2-chlorophenyl)-2-((4,4-difluorocyclohexyl)amino)-2-oxoethyl)-N-(3-fluoro-phenyl)-5-oxo-1-(pyrimidin-2-yl)pyrrolidine-2-carboxamide] | –
2 | < 100 | CN1C[C@@H](C(=O)N(c2cccc(F)c2)[C@H](C(=O)NC2CC(F)(F)C2)c2ccccc2Cl)N(c2cc(C#N)ccn2)C1=O [compound 79] | –
3 | – | (S)—N—((S)-1-(2-Chlorophenyl)-2-(3,3-difluorocyclobutylamino)-2-oxoethyl)-1-(3-cyanophenyl)-N-(1H-indazol-7-yl)-5-oxopyrrolidine-2-carboxamide [compound 186] | < 100
